In patent US20260327655A1, “SMALL-MOLECULE REGULATED ALTERNATIVE SPLICING” (priority 2023, published 2026):

Assays:
[1] = tested on: RS2-3 minigene (Firefly Luciferase), HEK-293T cells; assay: Luciferase induction assay, RS2-3 with splice modulator compounds in HEK-293T cells; type: cell-based; conditions: Homo sapiens, 18 hours, n of 3, read-out: Mean fold-induction of luciferase (relative to vehicle control)
RS1-10, NIH-3T3 cells = assay: RS1-10 performance in NIH-3T3 cells; type: cell-based, mouse; conditions: CMV promoter, 18 hours, FIG. 10B
Description: Human cell line HEK-293T cells or NIH-3T3 mouse fibroblast cell line cells were cultured in DMEM+10% FBS, collected after trypsinization, and then dispensed into 96-well plates (cell culture-treated). Each well of the plate was seeded with 1.0×10^5 cells in 100 μL culture medium. After a 1-hour incubation in the tissue culture incubator (5% CO2, 37 degrees C.), plasmid DNA was complexed with a transfection reagent, such as Lipofectamine 3000, and added to respective wells on the plate. Each well received an equivalent of 100 ng of plasmid DNA complexed with 0.15 μL Lipofectamine 3000. Triplicate wells were used for each condition tested in the experiment. The plasmid utilized in the experiments for HEK-293T cells and NIH-3T3 mouse fibroblast cells encoded a CMV promoter upstream of the RS1-10 construct that controlled the expression of a Firefly Luciferase gene followed by a SV40 polyadenylation signal. After a 10-minute incubation at room temperature, either DMSO vehicle or 24 A at specified doses was added to the wells of the plate. Plates were then incubated for 18 hours in a tissue culture incubator. Endpoint analysis was performed by adding 100 uL of a Luciferase substrate, such as Steady-Luc Firefly Luciferase substrate, to each well of the assay plate. […] Finally, the luminescent signal from each well was measured with a plate reader. […]

RS4-1 and variants = assay: Luciferase induction assay, RS4-1 and variants in HEK-293T cells; type: cell-based, human; conditions: 18 hours, FIGS. 15A, 15B
Description: HEK-293T cells were cultured in DMEM+10% FBS, collected after trypsinization, and dispensed into 96-well plates (cell culture-treated). Each well of the plate was seeded with 1.0×10^5 cells in 100 μL culture medium. After a 1-hour incubation in the tissue culture incubator (5% CO2, 37° C.), plasmid DNA was complexed with a transfection reagent, such as Lipofectamine 3000, and added to respective wells on the plate. Each well received 100 ng of plasmid DNA complexed with 0.15 μL Lipofectamine 3000. The plasmids utilized in the experiment encoded a CMV promoter upstream of the RS4-1 construct and variants that controlled the expression of a Firefly Luciferase gene followed by a SV40 polyadenylation signal. After a 10-minute incubation at room temperature, either DMSO vehicle or 24 A at specified doses was added to the wells of the plate. Plates were then incubated for 18 hours in a tissue culture incubator. Endpoint analysis was performed by adding 100 uL of a Luciferase substrate, such as Steady-Luc Firefly Luciferase substrate, to each well of the assay plate. The liquid contents of each was transferred to a 96-well plate, mixed again for 2 min on an orbital shaker, and incubated at room temperature for 5 min. Finally, the luminescent signal from each well was measured with a plate reader. […]

RS1-10 and RS1-X1 = assay: Luminescence of RS1-10 and RS1-X1 in HEK-293T cells; type: cell-based, human; conditions: 85 nM, 24 hours, RS1-X1 vs RS1-10, FIG. 8B
Description: A plasmid pool that was transfected into HEK-293T cells was treated for 24 hours with splice modulator 24 A at a concentration of 85 nM. RS1-10 was the starting minigene sequence and a variant switch sequence was identified from the switch sequence screen containing a 28 nucleotide intronic deletion compared to the RS1-10 sequence. […]. RS1-10 controlling a firefly luciferase gene or RS1-X1 controlling a firefly luciferase gene were cloned into individual expression plasmids containing a CMV promoter. HEK 293T cells were transfected with either the RS1-10 or RST-XT expression plasmid and were then treated for 24 hours with 85 nM 24 A while incubated in a tissue culture incubator (37° C., 5% CO2). The luminescence was measured as an endpoint analysis by adding 100 μL of a Luciferase substrate, such as Steady-Luc Firefly Luciferase substrate, to each well of the assay plate. The liquid contents of each well was transferred to a 96-well plate, mixed again for 2 min on an orbital shaker, and incubated at room temperature for 5 min. Finally, the luminescent signal from each well was measured with a plate reader (FIG. 8B).

CCN1CC(c2ccc(-c3ccc(-c4ccc5nn(C)cc5c4)cc3O)nn2)C1 [Compound 24A, 2-[6-(1-ethylazetidin-3-yl)pyridazin-3-yl]-5-(2-methyl-2H-indazol-5-yl)phenol]
fold induction at 0.1 µM ([1]; RS2-3, 100 nM): 14.5
fold induction at 1 µM ([1]; RS2-3, 1,000 nM): 42.6
fold-induction of luciferase (RS1-10, NIH-3T3 cells): increasing fold-induction of luciferase with increasing concentrations of 24 A
fold-induction of luciferase (RS4-1 and variants): increasing fold-induction of luciferase with increasing concentrations
luminescence (RLU) (RS1-10 and RS1-X1): RS1-X1 produced a higher luminescence (RLU) than RS1-10
